From paper PMC9652372, “Glycolytic flux control by drugging phosphoglycolate phosphatase” (Nature Communications, 2022)
Several values for one entry are separate records, joined by “and”; a condition that tells them apart may be missing. Identical values can stand only once.

Columns and labels:
[1] = target: T1, PGP (Mus musculus, UniProt Q8CHP8); test: Steady state kinetics of PG dephosphorylation in presence of CP1-3
T1 sequence (Q8CHP8 1-321): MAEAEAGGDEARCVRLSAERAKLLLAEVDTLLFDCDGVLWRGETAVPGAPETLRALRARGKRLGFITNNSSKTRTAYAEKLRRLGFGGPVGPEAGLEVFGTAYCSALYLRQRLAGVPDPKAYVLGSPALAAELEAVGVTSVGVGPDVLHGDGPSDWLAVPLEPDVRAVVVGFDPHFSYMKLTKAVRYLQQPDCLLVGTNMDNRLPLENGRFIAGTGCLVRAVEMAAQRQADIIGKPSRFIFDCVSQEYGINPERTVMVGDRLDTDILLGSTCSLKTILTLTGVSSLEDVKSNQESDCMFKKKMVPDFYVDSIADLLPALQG

[2] = target: T2, murine PGP (Mus musculus, UniProt Q8CHP8); test: SAR: CP1, CP2 and analogs on PGP phosphatase activity (PG); format: biochemical; parameters: His6 (N, cleaved yes); made in house; host or cells: Escherichia coli BL21 (DE3), pETM11, co-expressed with groES-groEL-tig
T2 sequence (Q8CHP8 1-321): T1 sequence (Q8CHP8 1-321)
Protocol: However, the DMSO concentration was kept constant across each assay. For SAR experiments, all compound stocks were prepared at 10 mM in 100% DMSO. A constant final DMSO concentration of 0.4% was maintained under all conditions, and solvent control samples contained 0.4% DMSO without compounds.
PGP phosphatase activity were assessed using recombinant, purified murine PGP and PG as a

[3] = PG dephosphorylation, increasing CP concentrations

In the case of O=C(Nc1ccccc1C(=O)O)c1ccc(Oc2ccc(C(=O)Nc3ccccc3C(=O)O)cc2)cc1 [CP1], the PGP activity ([1]; 0,5 µM CP1, PG 300 µM) is reported as 11.5358 µmol Pi/min/mg and 12.2568 µmol Pi/min/mg and 11.716 µmol Pi/min/mg, the PGP activity ([1]; 0,5 µM CP1, PG 400 µM) is reported as 14.0592 µmol Pi/min/mg and 13.5185 µmol Pi/min/mg and the PGP activity ([1]; 0,5 µM CP1, PG 500 µM) is reported as 16.5827 µmol Pi/min/mg and 16.763 µmol Pi/min/mg and 16.2222 µmol Pi/min/mg. The PGP activity ([1]; 0,5 µM CP1, PG 600 µM) was 17.6642 µmol Pi/min/mg and 17.3037 µmol Pi/min/mg and 17.4839 µmol Pi/min/mg, the PGP activity ([1]; 0,5 µM CP1, PG 700 µM) was 19.4667 µmol Pi/min/mg and 20.1876 µmol Pi/min/mg and 19.2864 µmol Pi/min/mg and the PGP activity ([1]; 0,5 µM CP1, PG 800 µM) was 18.0247 µmol Pi/min/mg and 18.9259 µmol Pi/min/mg and 20.0074 µmol Pi/min/mg. For the same compound, the PGP activity ([1]; 1 µM CP1, PG 50 µM) was 1.382 µmol Pi/min/mg and 0.901 µmol Pi/min/mg and 0.7809 µmol Pi/min/mg, the PGP activity ([1]; 1 µM CP1, PG 100 µM) was 2.763 µmol Pi/min/mg and 2.222 µmol Pi/min/mg and 2.403 µmol Pi/min/mg and the PGP activity ([1]; 1 µM CP1, PG 200 µM) was 4.805 µmol Pi/min/mg and 4.745 µmol Pi/min/mg and 4.625 µmol Pi/min/mg. For the same compound, the PGP activity ([1]; 1 µM CP1, PG 300 µM) was 7.751 µmol Pi/min/mg and 7.57 µmol Pi/min/mg and 7.39 µmol Pi/min/mg, the PGP activity ([1]; 1 µM CP1, PG 400 µM) was 9.373 µmol Pi/min/mg and 8.4716 µmol Pi/min/mg and 9.012 µmol Pi/min/mg and the PGP activity ([1]; 1 µM CP1, PG 500 µM) was 11.1753 µmol Pi/min/mg and 10.6346 µmol Pi/min/mg and 10.9951 µmol Pi/min/mg. The PGP activity ([1]; 1 µM CP1, PG 600 µM) was 12.437 µmol Pi/min/mg and 11.8963 µmol Pi/min/mg and 13.158 µmol Pi/min/mg, the PGP activity ([1]; 1 µM CP1, PG 700 µM) was 13.879 µmol Pi/min/mg and 12.7975 µmol Pi/min/mg and the PGP activity ([1]; 1 µM CP1, PG 800 µM) was 14.0592 µmol Pi/min/mg and 13.6988 µmol Pi/min/mg and 12.9778 µmol Pi/min/mg. The PGP activity ([1]; 2 µM CP1, PG 50 µM) was 0.6007 µmol Pi/min/mg and 1.021 µmol Pi/min/mg and 0.5406 µmol Pi/min/mg, the PGP activity ([1]; 2 µM CP1, PG 100 µM) was 1.562 µmol Pi/min/mg and 1.862 µmol Pi/min/mg and 1.201 µmol Pi/min/mg and the PGP activity ([1]; 2 µM CP1, PG 200 µM) was 2.703 µmol Pi/min/mg and 2.643 µmol Pi/min/mg. For the same compound, the PGP activity ([1]; 2 µM CP1, PG 300 µM) was 4.867 µmol Pi/min/mg and 5.227 µmol Pi/min/mg and 5.588 µmol Pi/min/mg, the PGP activity ([1]; 2 µM CP1, PG 400 µM) was 6.309 µmol Pi/min/mg and 6.128 µmol Pi/min/mg and 5.948 µmol Pi/min/mg and the PGP activity ([1]; 2 µM CP1, PG 500 µM) was 7.57 µmol Pi/min/mg and 7.03 µmol Pi/min/mg and 7.21 µmol Pi/min/mg. For the same compound, the PGP activity ([1]; 2 µM CP1, PG 600 µM) was 7.751 µmol Pi/min/mg and 7.931 µmol Pi/min/mg, the PGP activity ([1]; 2 µM CP1, PG 700 µM) was 7.57 µmol Pi/min/mg and 9.012 µmol Pi/min/mg and 8.291 µmol Pi/min/mg and the PGP activity ([1]; 2 µM CP1, PG 800 µM) was 6.849 µmol Pi/min/mg and 8.4716 µmol Pi/min/mg and 8.291 µmol Pi/min/mg. It also gave a vmax ([1]; CP 0.5 µM) of 39.9 ± 2.9 µmol/min/mg, a vmax ([1]; CP 1.0 µM) of 33.6 ± 3.0 µmol/min/mg and a vmax ([1]; CP 2.0 µM) of 17.1 ± 2.1 µmol/min/mg. For the same compound, the “effect on vmax (reduction)” value [1, 3] was ~ 3 fold, the “increase of KM” value [1, 3] was ~ 3 fold and the “inhibition of mPGP activity at 40 µM CP compared to DMSO control (%)” value ([2]; 40 µM CP, single experiments Exp #1-3) was 92.9348% and 99.7175% and 99.6139%. For the same compound, the remaining activity at 8 µM ([2]; CP log[M] -5.09691, read-out: mPGP activity in presence of CP relative to DMSO controls, mPGP on PG (norm.)) was 1.61%, the remaining activity at 2 µM ([2]; CP log[M] -5.69897, read-out: mPGP activity in presence of CP relative to DMSO controls, mPGP on PG (norm.)) was 11.3% and the remaining activity at 1 µM ([2]; CP log[M] -6, read-out: mPGP activity in presence of CP relative to DMSO controls, mPGP on PG (norm.)) was 24.7%. It also gave a remaining activity at 0.5 µM ([2]; CP log[M] -6.30103, read-out: mPGP activity in presence of CP relative to DMSO controls, mPGP on PG (norm.)) of 35.5%, a remaining activity at […] ([2]; CP log[M] -6.60206, read-out: mPGP activity in presence of CP relative to DMSO controls, mPGP on PG (norm.)) of 66.1% and a remaining activity at 0.125 µM ([2]; CP log[M] -6.90309, read-out: mPGP activity in presence of CP relative to DMSO controls, mPGP on PG (norm.)) of 76.3%. It also gave a remaining activity at 0.0625 µM ([2]; CP log[M] -7.20412, read-out: mPGP activity in presence of CP relative to DMSO controls, mPGP on PG (norm.)) of 88.7%, a remaining activity at 0.03125 µM ([2]; CP log[M] -7.50515, read-out: mPGP activity in presence of CP relative to DMSO controls, mPGP on PG (norm.)) of 93% and a remaining activity at 0.0078125 µM ([2]; CP log[M] -8.10721, read-out: mPGP activity in presence of CP relative to DMSO controls, mPGP on PG (norm.)) of 101%.
